Reference: patent US20230226198A1, “Artemisinin Derivatives” (DA ZEN THERANOSTICS, INC., priority 2019, published 2023)
pIC50: −log10 of the molar value. Blank lines part the entries; values can stand above or below the molecule they belong to.

How the values were obtained:
C4-2B cells = test: MTT cell viability / IC50 assay, C4-2B; type: cell-based; conditions: Homo sapiens, 48 h
Method: (§1) Cell culture: In the following examples, unless otherwise specified, all cell lines are purchased from American Type Culture Collection and cultured in American Type Culture Collection (ATCC)-recommended media, with fetal bovine serum (FBS) to a final concentration of 10% and 1× penicillin/streptomycin at 37° C. with 5% CO2 in a cell culture incubator, unless otherwise specified. Unless otherwise specified, culture is 2D. Where culture is 3D, low attachment plates are used, with the same media. C4-2B (ATCC® CRL-3315™, human prostate cancer cells of epithelial morphology) parental cell line and drug-resistant cells derived therefrom) are cultured in RPMI-1640 with 10% FBS. MDVR cells (an Enzalutamide-resistant variety of C4-2B prostate cancer cells formed as described below) are cultured as indicated for the parental C4-2B cells. Caki-1 cells (human clear cell renal cell carcinoma cells) are cultured in ATCC-formulated McCoy's 5a Medium Modified (ATCC Catalog No. 30-2007) with 10% FBS. […]
(§2) Each of the cell lines is treated either with a THAD (e.g. DZ-DHA-ether, MI-148-bis-DHA), or for comparison, with the DHA mono-ester “DZ-DHA”; alternatively/additionally, DZ1 and/or unconjugated DHA may serve as comparants. […] The absorbance density of the supernatant is read on a 96-well microplate reader at wavelength 595 nm. […]

H446 cells = test: MTT cell viability / IC50 assay, H446; type: cell-based; conditions: Homo sapiens, NCI-H446, 48 h
Method: as §1, §2

MDVR cells = test: C11-BODIPY (lipid peroxidation) and MitoSox (mitochondrial ROS) flow cytometry; type: cell-based, human; conditions: 8 h
Method: Example 5F: Cancer cells (here MDVR) are treated with DZ1, DHA and DZ-003 for 8 h, followed by C11-BODIPY staining for 30 min at 37° C. (lipid peroxidation) or MitoSox staining for 10 min at 37° C. […] Flow cytometry analysis is performed as described in example 5E above. […] Preliminary experiments indicate that the THAD as described herein may provide a similar or increased effects.

C4-2B MDVR cells = test: Annexin V / PI flow cytometry, cell death and apoptosis; type: cell-based, human; conditions: for induced cell death after pretreatment with OATP inhibitor: 2 h pretreatment with OATP inhibitor telmisartan (TMS); for induced cell death after pretreatment with Midivi or Nec-1: 2 h pretreatment with mitochondrial fission inhibitor (Midivi) or necroptosis inhibitor (Nec-1); for cell death / apoptosis (Annexin V / PI): C4-2B MDVR, e.g. 5 uM, 6 h
Method: Example 5E: Cancer cells (here C4-2B MDVR) are pretreated with OATP inhibitor telmisartan (TMS), mevalonate (MVA), Midivi (Drp-1 inhibitor), and necrostatin-1 (Nec-1) for 2 h before treatment with vehicle, DHA, DZ-003 and/or a THAD (e.g. 5 uM each) for 6 h. Cells are subjected to annexin v staining (10 ul/10^6 cells) in the dark at RT for 15-20 min followed by PI staining at 1 mg/ml to determine the apoptosis of the cells based on the PI (red) and Annexin V (green) fluorescence by flow cytometry analysis using SONY SA3800 Spectral Analyzer. […] The vehicle and DHA treated cells remain viable (lower-left quadrant; blue population indicates live cells).

pIC50 (H446 cells): 3.54
SMILES: C[C@H]1[C@@H](O)O[C@@H]2O[C@@]3(C)CC[C@H]4[C@H](C)CC[C@@H]1[C@@]24OO3 [DHA, dihydroartemisinin]
pIC50 (C4-2B cells): 3.73

SMILES: C[C@@H]1CC[C@H]2[C@@H](C)C(OC(=O)CCCCCN3/C(=C/C=C4\CCCC(/C=C/C5=[N+](CCCCS(=O)(=O)[O-])c6ccccc6C5(C)C)=C4Cl)C(C)(C)c4ccccc43)O[C@@H]3OC4(C)CC[C@@H]1[C@]32OO4 (stereo in doubt) [DZ3a]
pIC50 (C4-2B cells): 5.30
lipid peroxidation (C11-BODIPY fluorescence) (MDVR cells): induces lipid peroxidation
pIC50 (H446 cells): 4.90
induced cell death after pretreatment with OATP inhibitor (C4-2B MDVR cells): partially inhibited by an OATP inhibitor (TMA)
induced cell death after pretreatment with OATP inhibitor (C4-2B MDVR cells; listed as DZ-003): can be partially inhibited by an OATP inhibitor (TMS)
induced cell death after pretreatment with mevalonate (MVA) (C4-2B MDVR cells; 2 h pretreatment with mevalonate (MVA)): not so much by mevalonic acid (MVA)
induced cell death after pretreatment with Midivi or Nec-1 (C4-2B MDVR cells): blocked by mitochondrial fission (Midivi) and necroptosis inhibitors (Nec-1)
induced cell death after pretreatment with Midivi or Nec-1 (C4-2B MDVR cells; listed as DZ-003): can be blocked by mitochondrial fission (Midivi) and necroptosis inhibitor (Nec-1)
cell death / apoptosis (Annexin V / PI) (C4-2B MDVR cells): induces cell death
cell death / apoptosis (Annexin V / PI) (C4-2B MDVR cells; listed as DZ-003): induced cell death
